From article PMC8301998, “Discovery of Novel Allosteric Modulators Targeting an Extra-Helical Binding Site of GLP-1R Using Structure- and Ligand-Based Virtual Screening” (Biomolecules, 2021)
Read-outs that look alike come from different tables or passages of the source.

What was measured:
[1] = target: T1, GLP-1R (Homo sapiens, UniProt P43220); settings: for Modulation of GLP-1-elicited cAMP accumulation / GLP-1 potency (in words): GLP-1R expressing CHO-K1 cells
Description: (§1) cAMP accumulation was measured using the LANCE Ultra cAMP kit (PerkinElmer, Boston, MA, USA) according to the manufacturer’s instructions. […] Cells were then resuspended with assay buffer (DMEM, 0.1% BSA, 5 mM HEPES) and seeded onto 384-well plates (6 × 10^5/mL, 5 μL/well). […] After the addition of 5 μL of Eu-cAMP tracer and ULight-anti-cAMP, the reactions were stopped. The plates were left for 1 h at room temperature to measure time-resolved FRET signals at excitation wavelengths of 620 nm and 665 nm by EnVision (PerkinElmer, Waltham, MA, USA).

[2] = target: T1, GLP-1R; settings: for Effect on binding of GLP-1 to GLP-1R (in words): radiolabeled GLP-1, WT GLP-1R
Description: (§2) For homogeneous binding, cells were washed twice and incubated with a blocking buffer (F12 supplemented with 33 mM HEPES, and 0.1% (w/v) BSA, pH 7.4) for 2 h at 37 °C. […] Cells were washed three times with ice-cold PBS and lysed using 50 μL of lysis buffer (PBS supplemented with 20 mM Tris–HCl and 1% Triton X-100, pH 7.4). Subsequently, the plates were counted for radioactivity (counts per minute, CPM) in a scintillation counter (MicroBeta^2 Plate Counter, PerkinElmer, Waltham, MA, USA) using a scintillation cocktail (OptiPhaseSuperMix; PerkinElmer, Waltham, MA, USA).

[3] = target: T2, GLP-1R C347F mutant (Homo sapiens, UniProt P43220, C347F); settings: cited from earlier work
T2 construct: expressed in transfected cells
T2 sequence (P43220 24-463 C347F): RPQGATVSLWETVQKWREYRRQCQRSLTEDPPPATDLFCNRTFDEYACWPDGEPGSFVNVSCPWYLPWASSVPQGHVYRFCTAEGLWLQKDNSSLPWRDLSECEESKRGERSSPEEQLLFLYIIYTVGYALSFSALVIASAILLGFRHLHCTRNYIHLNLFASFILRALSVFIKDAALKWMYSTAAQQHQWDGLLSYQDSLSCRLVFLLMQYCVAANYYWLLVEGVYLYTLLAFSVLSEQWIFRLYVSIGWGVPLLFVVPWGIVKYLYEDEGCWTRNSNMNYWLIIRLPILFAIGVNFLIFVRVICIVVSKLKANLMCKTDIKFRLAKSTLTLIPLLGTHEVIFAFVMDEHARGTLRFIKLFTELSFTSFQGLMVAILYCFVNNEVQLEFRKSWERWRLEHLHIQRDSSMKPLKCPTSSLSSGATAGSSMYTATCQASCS

[4] = target: T1, GLP-1R; test: cell-based
Description: as §1

[5] = target: T2, GLP-1R C347F mutant; test: Whole cell binding assay, competition with radiolabeled GLP-1 at mutant GLP-1R
Description: as §2

[6] = target: T1, GLP-1R; test: cell-based; remark: listed apart in the source
Description: as §2

[7] = Table 3, PAMs from LBVS, relative to maximal response of GLP-1 at WT receptor
[8] = Table 3, PAMs, competition with 125I-GLP-1 (40 pM), whole cells
[9] = Table 1, NAMs from SBVS, relative to maximal response of GLP-1 at WT receptor
[10] = Table 1, NAMs, competition with 125I-GLP-1 (40 pM), whole cells
[11] = Table 4, analogues of new PAMs, competition with 125I-GLP-1

T1 sequence (P43220 24-463): as the sequence (P43220 24-463 C347F) above, with F324C counted along it

COc1ccc(NC(=O)c2n[nH]c3ccc([N+](=O)[O-])cc23)cc1NS(=O)(=O)c1ccc(F)cc1 [C26]
cAMP Accumulation Emax (% WT) [1, 7]: 89.4 ± 3.72 % WT
Binding Span ± SEM [2, 8]: −82.09 ± 13.44

CC(C)(C)Nc1nc2cc(Cl)c(Cl)cc2nc1S(C)(=O)=O [compound 2, 6,7-dichloro-3-methanesulfonyl-2-tert-butylamino-quinoxaline]
Binding at C347F mutant (in words) [3]: abolishment

O=C(O)c1cccc(NN=Cc2cn(-c3ccccc3)nc2-c2cc3ccccc3o2)c1 [Z21]
Modulation of GLP-1-elicited cAMP accumulation / GLP-1 potency (in words) [1]: negatively modulated
cAMP Accumulation Emax (% WT) [1, 9]: 97.02 ± 0.81 % WT
Binding Span ± SEM [2, 10]: 75.3 ± 12.57
Effect on binding of GLP-1 to GLP-1R (in words) [2]: decreased the binding of GLP-1 to GLP-1R

O=C(Cn1c(COc2ccccc2)nc2ccccc21)Nc1ccc(Cc2nnn[nH]2)cc1 [C10]
cAMP Accumulation Emax (% WT) [1, 7]: 92.93 ± 4.4 % WT
Binding Span ± SEM [2, 8]: 76.17 ± 16.21

CCC(C)N(CC(=O)N(Cc1cccn1Cc1ccccc1)C1CCCCC1)C(=O)C1CCC1 (stereo not drawn) [CD3532-B002]
cAMP Accumulation Emax (% WT) ([1]; Table 4, analogues of new PAMs): 92.2 ± 3.9 % WT
Binding Span ± SEM [2, 11]: N.B. ^c
Binding pIC50 ± SEM [2, 11]: N.B. ^c
EC50 [4]: 15.8 µM

Cc1ccc(-c2nn(-c3ccccc3)cc2C(=O)Nc2cccc(-n3cnnn3)c2)o1 [C23]
Modulation of GLP-1-elicited cAMP accumulation / GLP-1 potency (in words) [1]: positively modulated GLP-1 potency
cAMP Accumulation Emax (% WT) [1, 7]: 98.5 ± 3.6 % WT
Binding Span ± SEM [2, 8]: N.B. ^d
Binding pIC50 ± SEM [2, 8]: N.B. ^d
EC50 [4]: 15.8 µM

CCOc1ccc(S(=O)(=O)Nc2ccccc2C(=O)OCC(=O)Nc2cc(C)on2)cc1 [C13]
cAMP Accumulation Emax (% WT) [1, 7]: 76.6 ± 6.24 % WT

O=C(CSc1nnc[nH]1)Nc1sc2c(c1C(=O)NCc1ccccc1)CCCC2 [C31]
cAMP Accumulation Emax (% WT) [1, 7]: 91.0 ± 0.95 % WT
Binding Span ± SEM [2, 8]: −102.5 ± 6.85

O=C(Nc1ccc(Cl)cc1)Nc1snnc1C(=O)Nc1ccc(C(=O)O)cc1 [Z42]
Binding at C347F mutant (in words) [5]: enhanced the ligand binding
Modulation of GLP-1-elicited cAMP accumulation / GLP-1 potency (in words) [1]: negatively modulated
cAMP Accumulation Emax (% WT) [1, 9]: 99.72 ± 0.80 % WT
Binding Span ± SEM [2, 10]: N.B. ^d
Binding pIC50 ± SEM [2, 10]: N.B. ^d

COc1ccc(S(=O)(=O)Nc2cccc(C(=O)Nc3cc(C)on3)c2)cc1 [JK1719-D011]
cAMP Accumulation Emax (% WT) ([1]; Table 4, analogues of new PAMs): 126.1 ± 4.2 % WT
Binding Span ± SEM [2, 11]: 59.69 ± 15.13
Effect on binding of GLP-1 to GLP-1R (in words) [2]: weakened the ligand binding

CCCCN(CC(=O)N(Cc1cccn1Cc1ccccc1)C1CC1)C(=O)C1CCCC1 [CD3559-D005]
cAMP Accumulation Emax (% WT) ([1]; Table 4, analogues of new PAMs): 78.2 ± 13.6 % WT
Binding Span ± SEM [2, 11]: 35.25 ± 11.50

COc1ccccc1NS(=O)(=O)c1cc(NC(=O)c2ccc(=O)n(C)n2)ccc1N1CCCC1 [C22]
cAMP Accumulation Emax (% WT) [1, 7]: 96.9 ± 4.56 % WT
Binding Span ± SEM [2, 8]: −135.7 ± 8.4

CN(CC(=O)N1CCC(C(=O)O)CC1)C(=O)c1cccn1CCc1ccccc1 [C11]
IC50 [6]: 8.91 µM
Modulation of GLP-1-elicited cAMP accumulation / GLP-1 potency (in words) [1]: positively modulated GLP-1 potency
Binding Span ± SEM [2, 8]: −46.37 ± 5.83

Cc1ccc(NS(=O)(=O)c2ccc(NC(=O)c3n[nH]c4c3COc3ccccc3-4)cc2)cc1 [CD1652-A009]
IC50 [6]: 4.07 µM
cAMP Accumulation Emax (% WT) ([1]; Table 4, analogues of new PAMs): 114.9 ± 8.6 % WT
Binding Span ± SEM [2, 11]: 51.92 ± 9.60
